≈ marks a conversion by molar mass, not a printed value. Read-outs that look alike come from different tables or passages of the source.
Columns and labels:
S. aureus = assay: Broth microdilution MIC, European bacteraemia isolates 2010-2012; type: cell-based
Experimental: (§1) A total of 2,904 clinical strains responsible for documented bacteremia among unique hospitalized patients in 38 hospitals in 11 European Union countries. Israel, Russia, Turkey and Ukraine were included in this study (2010-2012). Isolates were submitted to a central monitoring laboratory (JMI Laboratories, North Liberty. Iowa. USA), following previously established protocols. Bacterial species identification was performed by using an automated system (Vitek®2; bioMèrieux, Hazelwood, Mo., USA) or conventional biochemical algorithms, as required.
(§2) Isolates were tested for susceptibility by broth microdilution methods following the Clinical and Laboratory Standards Institute (CLSI; M07-A9, 2012) document. Susceptibility testing was performed in cation-adjusted Mueller-Hinton broth (CA-MHB) using dry-form panels manufactured by Thermo Fisher Scientific, formerly TREK Diagnostics Systems/Sensititre (Cleveland. Ohio, USA). These panels provide results equivalent to the CLSI-approved broth microdilution method supplemented with 0.002% polysorbate-80.
(§3) Quality assurance was performed by concurrent testing of CLSI-recommended (M100-S23, 2013) strains: E. faecalis ATCC 29212 and S. aureus ATCC 29213. Interpretation of comparator MIC results was in accordance with published CLSI (M100-S23) and European Committee on Antimicrobial Susceptibility Testing (EUCAST, 2013) criteria.

E. faecium [1] = assay: as above; type: cell-based, Enterococcus faecium
Experimental: as §1, §2, §3

E. faecalis = assay: Broth microdilution MIC, US isolates 2011-2012, blood vs non-blood; type: cell-based
Experimental: (§4) 527 E. faecalis, 176 E. faecium, and 790 BHS (335 S. pyogenes and 455 S. agalactiae) clinical, single patient, non-consecutive isolates were collected in 2011-2012 from 46 sites geographically distributed across the United States. The MICs were determined by broth microdilution testing performed in accordance with CLSI M7 and M100 guidelines. From the resulting database, this analysis focused on the activities of ORI, vancomycin (VAN), daptomycin (DAP), and linezolid (LZD) according to specimen source.

E. faecium [2] = assay: as above; type: cell-based
Experimental: as §4

S. agalactiae = assay: as above; type: cell-based
Experimental: as §4

S. pyogenes = assay: as above; type: cell-based
Experimental: as §4

[3] = Staphylococcus aureus, Table 2, S. aureus Methicillin-resistant (1,708)
[4] = E. faecium (315), at ≦0.008 mg/L
[5] = E. faecium, VanA-phenotype (53), at ≦0.008 mg/L
[6] = E. faecium, Vancomycin-susceptible (257), at ≦0.008 mg/L
[7] = Enterococcus faecium, Table 1, E. faecium (315)
[8] = Enterococcus faecium, Table 1, E. faecium, VanA-phenotype (53)
[9] = Enterococcus faecium, Table 1, E. faecium, Vancomycin-susceptible (257)
[10] = Enterococcus faecium, Table 2, E. faecium Vancomycin-resistant (VanA-phenotype) (153)
[11] = Enterococcus faecium, Table 2, E. faecium Vancomycin-susceptible (257)

SMILES: CN[C@H](CC(C)C)C(=O)N[C@H]1C(=O)N[C@@H](CC(N)=O)C(=O)N[C@H]2C(=O)N[C@H]3C(=O)N[C@H](C(=O)N[C@H](C(=O)O)c4cc(O)cc(O)c4-c4cc3ccc4O)[C@H](O[C@H]3C[C@](C)(N)[C@@H](O)[C@H](C)O3)c3ccc(c(Cl)c3)Oc3cc2cc(c3O[C@@H]2O[C@H](CO)[C@@H](O)[C@H](O)[C@H]2O[C@H]2C[C@](C)(NCc3ccc(-c4ccc(Cl)cc4)cc3)[C@@H](O)[C@H](C)O2)Oc2ccc(cc2Cl)[C@H]1O [Oritavancin, N-(4-(4-chlorophenyl)benzyl)A82846B]
- inhibition at 0.25 µg/mL (S. aureus; Staphylococcus aureus, read-out: cumulative % inhibited at MIC, S. aureus, Methicillin-resistant (372), at 0.25 mg/L): 100%
- MIC50 (S. aureus; [3]): 0.03 µg/mL (≈ 0.0167 µM)
- MIC90 (S. aureus; [3]): 0.06 µg/mL (≈ 0.0335 µM)
- MIC Range (S. aureus; Table 2, S. aureus Methicillin-resistant (1,708)): ≦0.008-0.25 mg/L
- Number inhibited at MIC (E. faecium [1]; E. faecium (315), at 0.015 mg/L): 25
- Number inhibited at MIC (E. faecium [1]; E. faecium (315), at 0.03 mg/L): 12
- Number inhibited at MIC (E. faecium [1]; E. faecium (315), at 0.06 mg/L): 6
- Number inhibited at MIC (E. faecium [1]; E. faecium (315), at 0.12 mg/L): 3
- Number inhibited at MIC (E. faecium [1]; [4]): 269
- cumulative % inhibited at MIC (E. faecium [1]; [4]): 85.4%
- Number inhibited at MIC (E. faecium [1]; E. faecium, VanA-phenotype (53), at 0.015 mg/L): 19
- Number inhibited at MIC (E. faecium [1]; E. faecium, VanA-phenotype (53), at 0.03 mg/L): 12
- Number inhibited at MIC (E. faecium [1]; E. faecium, VanA-phenotype (53), at 0.06 mg/L): 6
- Number inhibited at MIC (E. faecium [1]; E. faecium, VanA-phenotype (53), at 0.12 mg/L): 3
- Number inhibited at MIC (E. faecium [1]; [5]): 13
- cumulative % inhibited at MIC (E. faecium [1]; [5]): 24.5%
- Number inhibited at MIC (E. faecium [1]; E. faecium, Vancomycin-susceptible (257), at 0.015 mg/L): 6
- Number inhibited at MIC (E. faecium [1]; [6]): 251
- cumulative % inhibited at MIC (E. faecium [1]; [6]): 97.7%
- MIC50 (E. faecium [1]; [7]): ≤ 0.008 µg/mL
- MIC90 (E. faecium [1]; [7]): 0.015 µg/mL (≈ 0.00837 µM)
- MIC50 (E. faecium [1]; [8]): 0.015 µg/mL (≈ 0.00837 µM)
- MIC90 (E. faecium [1]; [8]): 0.06 µg/mL (≈ 0.0335 µM)
- MIC50 (E. faecium [1]; [9]): ≤ 0.008 µg/mL
- MIC90 (E. faecium [1]; [9]): ≤ 0.008 µg/mL
- MIC50 (E. faecium [1]; [10]): 0.015 µg/mL (≈ 0.00837 µM)
- MIC90 (E. faecium [1]; [10]): 0.06 µg/mL (≈ 0.0335 µM)
- MIC50 (E. faecium [1]; [11]): ≤ 0.0081 µg/mL
- MIC90 (E. faecium [1]; [11]): ≤ 0.008 µg/mL
- MIC (E. faecium [1]; Enterococcus faecium, read-out: MIC values): ≤ 0.008 µg/mL
- inhibition at 0.015 µg/mL (E. faecium [1]; Enterococcus faecium, read-out: cumulative % inhibited at MIC, E. faecium (315), at 0.015 mg/L): 93.3%
- inhibition at 0.03 µg/mL (E. faecium [1]; Enterococcus faecium, read-out: cumulative % inhibited at MIC, E. faecium (315), at 0.03 mg/L): 97.1%
- inhibition at 0.06 µg/mL (E. faecium [1]; Enterococcus faecium, read-out: cumulative % inhibited at MIC, E. faecium (315), at 0.06 mg/L): 99.1%
- inhibition at 0.12 µg/mL (E. faecium [1]; Enterococcus faecium, read-out: cumulative % inhibited at MIC, E. faecium (315), at 0.12 mg/L): 100%
- inhibition at 0.015 µg/mL (E. faecium [1]; Enterococcus faecium, read-out: cumulative % inhibited at MIC, E. faecium, VanA-phenotype (53), at 0.015 mg/L): 60.4%
- inhibition at 0.03 µg/mL (E. faecium [1]; Enterococcus faecium, read-out: cumulative % inhibited at MIC, E. faecium, VanA-phenotype (53), at 0.03 mg/L): 83%
- inhibition at 0.06 µg/mL (E. faecium [1]; Enterococcus faecium, read-out: cumulative % inhibited at MIC, E. faecium, VanA-phenotype (53), at 0.06 mg/L): 94.3%
- inhibition at 0.12 µg/mL (E. faecium [1]; Enterococcus faecium, read-out: cumulative % inhibited at MIC, E. faecium, VanA-phenotype (53), at 0.12 mg/L): 100%
- inhibition at 0.015 µg/mL (E. faecium [1]; Enterococcus faecium, read-out: cumulative % inhibited at MIC, E. faecium, Vancomycin-susceptible (257), at 0.015 mg/L): 100%
- MIC Range (E. faecium [1]; Table 2, E. faecium Vancomycin-resistant (VanA-phenotype) (153)): ≦0.008-0.12 mg/L
- MIC Range (E. faecium [1]; Table 2, E. faecium Vancomycin-susceptible (257)): ≦0.008-0.015 mg/L
- MIC50 and MIC90 lower than daptomycin and linezolid (E. faecium [1]; VanA-phenotype E. faecium): 32- to 64 fold
- concentration inhibiting all strains (E. faecium [1]; VanA-phenotype E. faecium strains): ≤ 0.12 mg/L
- concentration inhibiting all strains (E. faecium [1]; all E. faecium, including resistant subsets): ≤ 0.12 mg/L
- activity relative to wild-type vancomycin-susceptible population (E. faecium [1]; vancomycin-resistant (VanA-type) E. faecium strains): at least two-fold less active
- MIC90 (E. faecalis; Blood, N 116): 0.06 µg/mL (≈ 0.0335 µM)
- MIC90 (E. faecalis; Non-Blood, N 411): 0.06 µg/mL (≈ 0.0335 µM)
- MIC90 (E. faecium [2]; Blood, N 84): 0.12 µg/mL (≈ 0.0669 µM)
- MIC90 (E. faecium [2]; Non-Blood, N 92): 0.12 µg/mL (≈ 0.0669 µM)
- MIC90 (S. agalactiae; Blood, N 100): 0.25 µg/mL (≈ 0.139 µM)
- MIC90 (S. agalactiae; Non-Blood, N 355): 0.25 µg/mL (≈ 0.139 µM)
- MIC90 (S. pyogenes; Blood, N 53): 0.25 µg/mL (≈ 0.139 µM)
- MIC90 (S. pyogenes; Non-Blood, N 282): 0.25 µg/mL (≈ 0.139 µM)

Reference: patent US20160206688A1, “METHODS FOR TREATING BACTEREMIA AND OSTEOMYELITIS USING ORITAVANCIN” (THE MEDICINES COMPANY, priority 2013, published 2016)
